#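 Dose response: 5 concentrations. Exposure: 48 h. Format: 96-well plates. Endpoint: linear interpolation; highest concentration if not reached. GI50 = concentration required for 50% inhibition of growth. The concentration for full growth arrest is given as TGI.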
# Assays:
# Assay in all cases: DTP human tumour cell line panel, 48 h
# HCT-116 colon = system: HCT-116 colon
# CAKI-1 renal = system: CAKI-1 renal
# OVCAR-3 ovarian = system: OVCAR-3 ovarian
# SF-539 CNS = system: SF-539 CNS
# ACHN renal = system: ACHN renal
# SNB-19 CNS = system: SNB-19 CNS
# COLO 205 colon = system: COLO 205 colon
# SK-OV-3 ovarian = system: SK-OV-3 ovarian
# HOP-62 NSCLC = system: HOP-62 NSCLC
# RPMI-8226 leukemia = system: RPMI-8226 leukemia
# SF-268 CNS = system: SF-268 CNS
# HCT-15 colon = system: HCT-15 colon
# IGROV1 ovarian = system: IGROV1 ovarian
# DU-145 prostate = system: DU-145 prostate
# UO-31 renal = system: UO-31 renal
# OVCAR-8 ovarian = system: OVCAR-8 ovarian
# MDA-MB-435 = system: MDA-MB-435
# 786-0 renal = system: 786-0 renal
# SK-MEL-5 melanoma = system: SK-MEL-5 melanoma
# OVCAR-5 ovarian = system: OVCAR-5 ovarian
# SK-MEL-28 melanoma = system: SK-MEL-28 melanoma
# HL-60(TB) leukemia = system: HL-60(TB) leukemia
# A498 renal = system: A498 renal
# CCRF-CEM leukemia = system: CCRF-CEM leukemia
# TK-10 renal = system: TK-10 renal
# NCI/ADR-RES ovarian = system: NCI/ADR-RES ovarian
# K-562 leukemia = system: K-562 leukemia
# MCF7 breast = system: MCF7 breast
# OVCAR-4 ovarian = system: OVCAR-4 ovarian
# SK-MEL-2 melanoma = system: SK-MEL-2 melanoma
# MALME-3M melanoma = system: MALME-3M melanoma
# KM12 colon = system: KM12 colon
# NCI-H522 lung = system: NCI-H522 lung
# NCI-H460 lung = system: NCI-H460 lung
# UACC-257 melanoma = system: UACC-257 melanoma
# LOX IMVI melanoma = system: LOX IMVI melanoma
# MDA-MB-231 breast = system: MDA-MB-231 breast
# NCI-H226 lung = system: NCI-H226 lung
# T-47D breast = system: T-47D breast
# NCI-H23 lung = system: NCI-H23 lung
# HS 578T breast = system: HS 578T breast
# HCC-2998 colon = system: HCC-2998 colon
# M14 melanoma = system: M14 melanoma
# SW-620 colon = system: SW-620 colon
# MOLT-4 leukemia = system: MOLT-4 leukemia
# SNB-75 CNS = system: SNB-75 CNS
# HOP-92 NSCLC = system: HOP-92 NSCLC
# RXF 393 renal = system: RXF 393 renal
# HT29 colon = system: HT29 colon
# BT-549 breast = system: BT-549 breast
# SF-295 CNS = system: SF-295 CNS
# U251 CNS = system: U251 CNS
# SR leukemia = system: SR leukemia
# SN12C renal = system: SN12C renal
# UACC-62 melanoma = system: UACC-62 melanoma
# PC-3 prostate = system: PC-3 prostate
# A549 NSCLC = system: A549 NSCLC
# EKVX NSCLC = system: EKVX NSCLC
smiles,measurement,setting,value
CCOc1ccc(C(C[N+](=O)[O-])Sc2ccccc2N)cc1 (stereo unspecified),GI50,HCT-116 colon,1.7 µM
same,TGI,HCT-116 colon,3.36 µM
same,GI50,CAKI-1 renal,12.9 µM
same,TGI,CAKI-1 renal,25.6 µM
same,GI50,OVCAR-3 ovarian,2.92 µM
same,TGI,OVCAR-3 ovarian,12 µM
same,GI50,SF-539 CNS,1.89 µM
same,TGI,SF-539 CNS,3.94 µM
same,GI50,ACHN renal,11.1 µM
same,TGI,ACHN renal,23.1 µM
same,GI50,SNB-19 CNS,9.22 µM
same,TGI,SNB-19 CNS,21.2 µM
same,GI50,COLO 205 colon,4.74 µM
same,TGI,COLO 205 colon,16.8 µM
same,GI50,SK-OV-3 ovarian,14.2 µM
same,TGI,SK-OV-3 ovarian,27.2 µM
same,GI50,HOP-62 NSCLC,18.3 µM
same,TGI,HOP-62 NSCLC,32.3 µM
same,GI50,RPMI-8226 leukemia,2.23 µM
same,TGI,RPMI-8226 leukemia,5.32 µM
same,GI50,SF-268 CNS,4.76 µM
same,TGI,SF-268 CNS,18.3 µM
same,GI50,HCT-15 colon,2.01 µM
same,TGI,HCT-15 colon,4.75 µM
same,GI50,IGROV1 ovarian,3.33 µM
same,TGI,IGROV1 ovarian,13.2 µM
same,GI50,DU-145 prostate,4.17 µM
same,TGI,DU-145 prostate,15 µM
same,GI50,UO-31 renal,2.05 µM
same,TGI,UO-31 renal,18.2 µM
same,GI50,OVCAR-8 ovarian,8.97 µM
same,TGI,OVCAR-8 ovarian,22.6 µM
same,GI50,MDA-MB-435,2.25 µM
same,TGI,MDA-MB-435,6.95 µM
same,GI50,786-0 renal,5.11 µM
same,TGI,786-0 renal,17.1 µM
same,GI50,SK-MEL-5 melanoma,6.34 µM
same,TGI,SK-MEL-5 melanoma,19.4 µM
same,GI50,OVCAR-5 ovarian,11.2 µM
same,TGI,OVCAR-5 ovarian,23.2 µM
same,GI50,SK-MEL-28 melanoma,4.03 µM
same,TGI,SK-MEL-28 melanoma,14.8 µM
same,GI50,HL-60(TB) leukemia,2.27 µM
same,TGI,HL-60(TB) leukemia,6.59 µM
same,GI50,A498 renal,12.5 µM
same,TGI,A498 renal,25 µM
same,GI50,CCRF-CEM leukemia,3.67 µM
same,TGI,CCRF-CEM leukemia,18.9 µM
same,GI50,TK-10 renal,15.4 µM
same,TGI,TK-10 renal,29.2 µM
same,GI50,NCI/ADR-RES ovarian,14.3 µM
same,TGI,NCI/ADR-RES ovarian,28.1 µM
same,GI50,K-562 leukemia,2.97 µM
same,TGI,K-562 leukemia,11.9 µM
same,GI50,MCF7 breast,1.71 µM
same,TGI,MCF7 breast,6.04 µM
same,GI50,OVCAR-4 ovarian,13 µM
same,TGI,OVCAR-4 ovarian,26 µM
same,GI50,SK-MEL-2 melanoma,16.1 µM
same,TGI,SK-MEL-2 melanoma,31.2 µM
same,GI50,MALME-3M melanoma,12.3 µM
same,TGI,MALME-3M melanoma,24.7 µM
same,GI50,KM12 colon,3.27 µM
same,TGI,KM12 colon,10.2 µM
same,GI50,NCI-H522 lung,11.8 µM
same,TGI,NCI-H522 lung,24.9 µM
same,GI50,NCI-H460 lung,10.2 µM
same,TGI,NCI-H460 lung,27 µM
same,GI50,UACC-257 melanoma,4.6 µM
same,TGI,UACC-257 melanoma,16.7 µM
same,GI50,LOX IMVI melanoma,1.44 µM
same,TGI,LOX IMVI melanoma,2.92 µM
same,GI50,MDA-MB-231 breast,2.43 µM
same,TGI,MDA-MB-231 breast,7.84 µM
same,GI50,NCI-H226 lung,3.96 µM
same,TGI,NCI-H226 lung,16.2 µM
same,GI50,T-47D breast,6.77 µM
same,TGI,T-47D breast,25.3 µM
same,GI50,NCI-H23 lung,8.71 µM
same,TGI,NCI-H23 lung,21.6 µM
same,GI50,HS 578T breast,3.1 µM
same,TGI,HS 578T breast,18.3 µM
same,GI50,HCC-2998 colon,1.77 µM
same,TGI,HCC-2998 colon,3.25 µM
same,GI50,M14 melanoma,6.6 µM
same,TGI,M14 melanoma,19.5 µM
same,GI50,SW-620 colon,1.73 µM
same,TGI,SW-620 colon,4.45 µM
same,GI50,MOLT-4 leukemia,3.73 µM
same,TGI,MOLT-4 leukemia,16.9 µM
same,GI50,SNB-75 CNS,2.8 µM
same,TGI,SNB-75 CNS,17.4 µM
same,GI50,HOP-92 NSCLC,16.5 µM
same,TGI,HOP-92 NSCLC,30.9 µM
same,GI50,RXF 393 renal,2.1 µM
same,TGI,RXF 393 renal,4.6 µM
same,GI50,HT29 colon,2.07 µM
same,TGI,HT29 colon,4.19 µM
same,GI50,BT-549 breast,2.6 µM
same,TGI,BT-549 breast,9.9 µM
same,GI50,SF-295 CNS,4.39 µM
same,TGI,SF-295 CNS,17.3 µM
same,GI50,U251 CNS,2.96 µM
same,TGI,U251 CNS,10.6 µM
same,GI50,SR leukemia,2.3 µM
same,TGI,SR leukemia,5.17 µM
same,GI50,SN12C renal,3.23 µM
same,TGI,SN12C renal,13.4 µM
same,GI50,UACC-62 melanoma,10 µM
same,TGI,UACC-62 melanoma,21.6 µM
same,GI50,PC-3 prostate,4.02 µM
same,TGI,PC-3 prostate,17.3 µM
same,GI50,A549 NSCLC,7.82 µM
same,TGI,A549 NSCLC,23 µM
same,GI50,EKVX NSCLC,14.8 µM
same,TGI,EKVX NSCLC,30 µM

# From PubChem BioAssay (NCI)
